Assay results published in US12280072B2, “Oligosaccharide compound for inhibiting intrinsic coagulation factor X-enzyme complex, and preparation method therefor and uses thereof” (Jiuzhitang Co., Ltd., priority 2017, dated 2025).

Columns and labels:
Assay type in all cases: biochemical
human-controlled plasma [1] = test: Anticoagulant activity assay: APTT clotting time
Protocol: (§1) 8.2 Methods • (1) Preparation of sample solution: Oligosaccharide compounds A1˜A8, B1˜B11 and oligosaccharide mixtures C1, D1, D2 were all dissolved in Tris-HCl buffer and diluted to the desired series of solubility. • (2) Anticoagulant activity assay: 90 μL of human-controlled plasma was added to the sample or 10 μL of the control solution, and then the clotting time (APTT and PT) was detected by the MC-4000 coagulometer according to the method described in the APTT and PT kit instructions. • (3) Coagulation factor inhibitory activity analysis: […]

human-controlled plasma [2] = test: Anticoagulant activity assay: PT clotting time
Protocol: as §1

plasma = test: TT (thrombin time) clotting time
intrinsic factor Xase = biological target: T1, intrinsic factor Xase (Homo sapiens, UniProt P00740); test: Xase inhibitory activity assay; details: read-out: Drug concentration required to inhibit 50% of coagulation factor activity (IC50, ng/mL) Xase (converted)
T1 construct: 60 nM FIXa; purchased
Protocol: Xase inhibitory activity assay: Detection was performed according to kit instructions and literature methods by combining the Factor VIII and […]. Specifically, to each well of a 96-well plate, 30 μL of test solution, control solution, or Tris-HCl buffer (negative control) was added, and 30 μl of FVIII (2 IU/ml), 30 μl of R2 (60 nM FIXa, containing FIIa, PC/PS, Ca^2+) were sequentially added, mixed by shaking the plate, incubated at 37° C. for 2 min; and then 30 μL of R1 (50 nM FX, containing direct thrombin inhibitor) was added, mixed by shaking the plate, incubated at 37° C. for 1 min; and then 30 μL of R3 (FXa chromogenic substrate SXa-11, about 8.4 mM) was added. The absorbance at 405 nm (OD405) was detected with a microplate reader, continuously measuring for 7.5 min at a interval of 30 s. The Xase activity and IC50 value of Xase inhibition of the test sample were calculated based on the OD405 change value.
(§2) Data processing: The average value of OD405 detected by the duplicated well was used as the detection value of the test sample and the reference of each concentration, and the slope of the linear fit between the detected value to the time value (the change rate of the absorbance value OD405/min) indicated enzymatic activity of coagulation factor. Taking the clotting factor activity of the negative control well as 100%, coagulation factor activity (percentage) in the presence of the test sample was calculated. The coagulation factor activity in the presence of the test sample was plotted against the concentration of the test sample, and fitted according to the following formula, to calculate the IC50 value: B=(IC50)^n/{(IC50)^n+[I]^n}
(§3) in the formula, B is the coagulation factor activity (percentage) in the presence of the test sample, [I] is the concentration of the test sample, IC50 is the half inhibitory concentration (concentration of the test sample required to inhibit 50% of the activity), and n is the Hill coefficient. • (4) Effect on surface activation and platelet activity: […]

FXa (Homo sapiens) = biological target: T2, FXa (Homo sapiens); test: AT-dependent Xa inhibitory activity assay; details: in presence of AT; read-out: Drug concentration required to inhibit 50% of coagulation factor activity (IC50, ng/mL) Xa (AT)
T2 construct: 8 μg/mL FXa solution; purchased
Protocol: AT-dependent Xa inhibitory activity assay: Heparin […] kit was used for detection. To a 96-well plate, 30 μL of sample, control solution or Tris-HCl buffer (negative control) was added, then 30 μL of 1 IU/mL AT solution was added, mixed well and incubated at 37° C. for 1 min; and than 30 μL of 8 μg/mL FXa solution was added, mixed well and incubated at 37° C. for 1 min, then 30 μL of pre-warmed 1.25 mM Xa chromogenic substrate SXa-11 was added. OD405 was detected by a microplate reader.
as §2, §3

FIIa (Homo sapiens) = biological target: T3, FIIa (Homo sapiens); test: AT-dependent IIa inhibitory activity assay; details: in presence of AT; read-out: Drug concentration required to inhibit 50% of coagulation factor activity (IC50, ng/mL) Ha (AT)
T3 construct: antithrombin (i.e., active coagulation factor IIa); purchased
Protocol: AT-dependent IIa inhibitory activity assay: Heparin Anti-FIIa kit was used for detection. To a 96-well plate, 30 μL of sample, control solution or Tris-HCl buffer (negative control) was added, and then 30 μL of 1 IU/mL AT solution was added, mixed well by shaking the plate and incubated at 37° C. for 2 min; 30 μL of 24 IU/mL FIIa solution was added, mixed well by shaking the plate and incubated for 2 min at 37° C., and then 30 μL of pre-warmed 1.25 mM FIIa specific chromogenic substrate CS-01 (38) was added, mixed well by shaking the plate. The OD405 was detected by a microplate reader and the IC50 value of FIIa inhibition of each sample was calculated.
as §2, §3

T1 sequence (P00740 47-191 limits assumed): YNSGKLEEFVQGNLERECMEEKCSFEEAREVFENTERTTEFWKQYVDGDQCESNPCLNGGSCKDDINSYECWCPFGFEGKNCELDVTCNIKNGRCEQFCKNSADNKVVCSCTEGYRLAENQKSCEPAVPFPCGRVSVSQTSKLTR
T1 sequence (P00740 227-461 limits assumed): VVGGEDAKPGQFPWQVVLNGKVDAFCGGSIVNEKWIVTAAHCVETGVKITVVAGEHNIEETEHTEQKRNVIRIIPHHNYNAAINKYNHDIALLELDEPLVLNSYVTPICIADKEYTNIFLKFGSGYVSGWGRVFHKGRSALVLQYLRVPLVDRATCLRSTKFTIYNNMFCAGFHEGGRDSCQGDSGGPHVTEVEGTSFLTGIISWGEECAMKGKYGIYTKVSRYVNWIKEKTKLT
T2 sequence (P01008 33-464): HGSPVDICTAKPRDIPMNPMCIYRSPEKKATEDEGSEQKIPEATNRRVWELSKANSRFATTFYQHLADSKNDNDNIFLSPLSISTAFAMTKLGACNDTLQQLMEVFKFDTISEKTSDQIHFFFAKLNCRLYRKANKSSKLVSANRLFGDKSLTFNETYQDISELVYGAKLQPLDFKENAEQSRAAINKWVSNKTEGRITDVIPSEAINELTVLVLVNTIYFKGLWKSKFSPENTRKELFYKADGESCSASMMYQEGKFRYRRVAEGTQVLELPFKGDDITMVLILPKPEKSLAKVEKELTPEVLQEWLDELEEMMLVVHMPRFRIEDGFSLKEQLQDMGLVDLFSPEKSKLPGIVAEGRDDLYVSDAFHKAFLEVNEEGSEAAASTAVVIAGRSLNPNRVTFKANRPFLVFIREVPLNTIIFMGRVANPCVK
T3 sequence (P01008 33-464): as above

With `CC(=O)NC(CO)C(OC1OC(C(=O)O)C(OC2OC(COS(=O)(=O)O)C(OS(=O)(=O)O)C(OC3OC(C(=O)O)C(OC4OC(COS(=O)(=O)O)C(OS(=O)(=O)O)C(OC5OC(C(=O)O)C(OC6OC(COS(=O)(=O)O)C(OS(=O)(=O)O)C(OC7OC(C(=O)O)=CC(OC8OC(C)C(OS(=O)(=O)O)C(O)C8OS(=O)(=O)O)C7O)C6NC(C)=O)C(OC6OC(C)C(OS(=O)(=O)O)C(O)C6OS(=O)(=O)O)C5O)C4NC(C)=O)C(OC4OC(C)C(OS(=O)(=O)O)C(O)C4OS(=O)(=O)O)C3O)C2NC(C)=O)C(OC2OC(C)C(OS(=O)(=O)O)C(O)C2OS(=O)(=O)O)C1O)C(OS(=O)(=O)O)C(O)COS(=O)(=O)O` [Compound A3, L-Fuc2S4S-(α1,3)-ΔUA-(α1,3)-{D-GaNAc4S6S-(β1,4)-[L-Fuc2S4S-(α1,3)]-D-GlcA-(β1,3)}n+1-D-GalNAc4S6S-ol] the “Drug concentration required for multiplication of coagulation time (μg/mL) APTT” value (shortened to “Drug concentration required … (μg/mL) APTT”) (human-controlled plasma [1]) was 6.8 µg/mL, the “Drug concentration required for multiplication of coagulation time (μg/mL) PT” value (“Drug concentration required … (μg/mL) PT” below) (human-controlled plasma [2]) was “# (>128 μg/mL)” and the “Drug concentration required for multiplication of coagulation time (μg/mL) TT” value (“Drug concentration required … (μg/mL) TT” below) (plasma) was “# (>128 μg/mL)”. For the same compound, the IC50 (intrinsic factor Xase) was 0.0118 µM, the IC50 (FXa (Homo sapiens)) was over 1.48 µM and the IC50 (FIIa (Homo sapiens)) was over 1.48 µM.
For `CC(=O)NC(CO)C(OC1OC(C(=O)O)C(OC2OC(COS(=O)(=O)O)C(OS(=O)(=O)O)C(OC3OC(C(=O)O)C(OC4OC(COS(=O)(=O)O)C(OS(=O)(=O)O)C(OC5OC(C(=O)O)C(OC6OC(COS(=O)(=O)O)C(OS(=O)(=O)O)C(OC7OC(C(=O)O)C(OC8OC(COS(=O)(=O)O)C(OS(=O)(=O)O)C(OC9OC(C(=O)O)=CC(OC%10OC(C)C(OS(=O)(=O)O)C(O)C%10OS(=O)(=O)O)C9O)C8NC(C)=O)C(OC8OC(C)C(OS(=O)(=O)O)C(O)C8OS(=O)(=O)O)C7O)C6NC(C)=O)C(OC6OC(C)C(OS(=O)(=O)O)C(O)C6OS(=O)(=O)O)C5O)C4NC(C)=O)C(OC4OC(C)C(OS(=O)(=O)O)C(O)C4OS(=O)(=O)O)C3O)C2NC(C)=O)C(OC2OC(C)C(OS(=O)(=O)O)C(O)C2OS(=O)(=O)O)C1O)C(OS(=O)(=O)O)C(O)COS(=O)(=O)O` [Compound A4, L-Fuc2S4S-(α1,3)-ΔUA-(α1,3)-{D-GaNAc4S6S-(β1,4)-[L-Fuc2S4S-(α1,3)]-D-GlcA-(β1,3)}n+1-D-GalNAc4S6S-ol], the “Drug concentration required … (μg/mL) APTT” value (human-controlled plasma [1]) was 5.3 µg/mL, the “Drug concentration required … (μg/mL) PT” value (human-controlled plasma [2]) was “# (>128 μg/mL)” and the “Drug concentration required … (μg/mL) TT” value (plasma) was “# (>128 μg/mL)”. For the same compound, the IC50 (intrinsic factor Xase) was 0.00667 µM, the IC50 (FXa (Homo sapiens)) was over 1.18 µM and the IC50 (FIIa (Homo sapiens)) was over 1.18 µM.
In the case of `CC(=O)NC(CO)C(OC1OC(C(=O)O)C(OC2OC(COS(=O)(=O)O)C(OS(=O)(=O)O)C(OC3OC(C(=O)O)C(OC4OC(COS(=O)(=O)O)C(OS(=O)(=O)O)C(OC5OC(C(=O)O)C(OC6OC(COS(=O)(=O)O)C(OS(=O)(=O)O)C(OC7OC(C(=O)O)C(OC8OC(COS(=O)(=O)O)C(OS(=O)(=O)O)C(OC9OC(C(=O)O)C(OC%10OC(COS(=O)(=O)O)C(OS(=O)(=O)O)C(OC%11OC(C(=O)O)=CC(OC%12OC(C)C(OS(=O)(=O)O)C(O)C%12OS(=O)(=O)O)C%11O)C%10NC(C)=O)C(OC%10OC(C)C(OS(=O)(=O)O)C(O)C%10OS(=O)(=O)O)C9O)C8NC(C)=O)C(OC8OC(C)C(OS(=O)(=O)O)C(O)C8OS(=O)(=O)O)C7O)C6NC(C)=O)C(OC6OC(C)C(OS(=O)(=O)O)C(O)C6OS(=O)(=O)O)C5O)C4NC(C)=O)C(OC4OC(C)C(OS(=O)(=O)O)C(O)C4OS(=O)(=O)O)C3O)C2NC(C)=O)C(OC2OC(C)C(OS(=O)(=O)O)C(O)C2OS(=O)(=O)O)C1O)C(OS(=O)(=O)O)C(O)COS(=O)(=O)O` [Compound A5, L-Fuc2S4S-(α1,3)-ΔUA-(α1,3)-{D-GaNAc4S6S-(β1,4)-[L-Fuc2S4S-(α1,3)]-D-GlcA-(β1,3)}n+1-D-GalNAc4S6S-ol], the “Drug concentration required … (μg/mL) APTT” value (human-controlled plasma [1]) is reported as 3.9 µg/mL, the “Drug concentration required … (μg/mL) PT” value (human-controlled plasma [2]) is reported as “# (>128 μg/mL)” and the “Drug concentration required … (μg/mL) TT” value (plasma) is reported as “# (>128 μg/mL)”. The IC50 (intrinsic factor Xase) was 0.00465 µM, the IC50 (FXa (Homo sapiens)) was over 0.985 µM and the IC50 (FIIa (Homo sapiens)) was over 0.985 µM.
`COC(=O)C1=CC(OC2OC(C)C(OS(=O)(=O)O)C(O)C2OS(=O)(=O)O)C(O)C(OC2C(NC(C)=O)C(OC3C(C(=O)OC)OC(OC4C(NC(C)=O)C(OC5C(C(=O)OC)OC(OC(C(CO)NC(C)=O)C(OS(=O)(=O)O)C(O)COS(=O)(=O)O)C(O)C5OC5OC(C)C(OS(=O)(=O)O)C(O)C5OS(=O)(=O)O)OC(COS(=O)(=O)O)C4OS(=O)(=O)O)C(O)C3OC3OC(C)C(OS(=O)(=O)O)C(O)C3OS(=O)(=O)O)OC(COS(=O)(=O)O)C2OS(=O)(=O)O)O1` [Compound A6, L-Fuc2S4S-(α1,3)-[6-Methyl-ΔUA-(α1,3)]-{D-GaNAc4S6S-(β1,4)-[L-Fuc2S4S-(α1,3)-]-D-6-Methyl-GlcA-(β1,4)}2-D-GalNAc4S6S-ol] was tested, and the “Drug concentration required … (μg/mL) APTT” value (human-controlled plasma [1]) was 7.5 µg/mL, the “Drug concentration required … (μg/mL) PT” value (human-controlled plasma [2]) was “# (>128 μg/mL)” and the “Drug concentration required … (μg/mL) TT” value (plasma) was “# (>128 μg/mL)”. The IC50 (intrinsic factor Xase) was 0.0265 µM, the IC50 (FXa (Homo sapiens)) was over 1.94 µM and the IC50 (FIIa (Homo sapiens)) was over 1.94 µM.
`CC1OC(OC2C=C(C(=O)O)OC(OC3C(NS(=O)(=O)O)C(OC4C(C(=O)O)OC(OC5C(NS(=O)(=O)O)C(OC6C(C(=O)O)OC(OC(C(CO)NS(=O)(=O)O)C(OS(=O)(=O)O)C(O)COS(=O)(=O)O)C(O)C6OC6OC(C)C(OS(=O)(=O)O)C(O)C6OS(=O)(=O)O)OC(COS(=O)(=O)O)C5OS(=O)(=O)O)C(O)C4OC4OC(C)C(OS(=O)(=O)O)C(O)C4OS(=O)(=O)O)OC(COS(=O)(=O)O)C3OS(=O)(=O)O)C2O)C(OS(=O)(=O)O)C(O)C1OS(=O)(=O)O` [Compound A7, L-Fuc2S4S-(α1,3)-L-ΔUA-(α1,3)-{D-GalNS4S6S-(β1,4)-[L-Fuc2S4S-(α1,3)-]-D-GlcA-(β1,3)}2-D-Gal-NS4S6S-ol] was tested, and the “Drug concentration required … (μg/mL) APTT” value (human-controlled plasma [1]) was 6.9 µg/mL, the “Drug concentration required … (μg/mL) PT” value (human-controlled plasma [2]) was “# (>128 μg/mL)” and the “Drug concentration required … (μg/mL) TT” value (plasma) was “# (>128 μg/mL)”. The IC50 (intrinsic factor Xase) was 0.0222 µM, the IC50 (FXa (Homo sapiens)) was over 1.88 µM and the IC50 (FIIa (Homo sapiens)) was over 1.88 µM.
`COCC(NC(C)=O)C(OC1OC(C(=O)OC)C(OC2OC(COS(=O)(=O)O)C(OS(=O)(=O)O)C(OC3OC(C(=O)OC)C(OC4OC(COS(=O)(=O)O)C(OS(=O)(=O)O)C(OC5OC(C(=O)OC)=CC(OC6OC(C)C(OS(=O)(=O)O)C(O)C6OS(=O)(=O)O)C5O)C4NC(C)=O)C(OC4OC(C)C(OS(=O)(=O)O)C(O)C4OS(=O)(=O)O)C3O)C2NC(C)=O)C(OC2OC(C)C(OS(=O)(=O)O)C(O)C2OS(=O)(=O)O)C1O)C(OS(=O)(=O)O)C(O)COS(=O)(=O)O` [Compound A8, L-Fuc2S4S-(α1,3)-[6-Methyl-ΔUA-(α1,3)]-{D-GaNAc4S6S-(β1,4)-[L-Fuc2S4S-(α1,3)-]-D-6-Methyl-GlcA-(β1,3)}2-D-1-Methyl-Gal-NAc4S6S-ol] was tested, and the “Drug concentration required … (μg/mL) APTT” value (human-controlled plasma [1]) was 8.2 µg/mL, the “Drug concentration required … (μg/mL) PT” value (human-controlled plasma [2]) was “# (>128 μg/mL)” and the “Drug concentration required … (μg/mL) TT” value (plasma) was “# (>128 μg/mL)”. For the same compound, the IC50 (intrinsic factor Xase) was 0.0272 µM, the IC50 (FXa (Homo sapiens)) was over 1.93 µM and the IC50 (FIIa (Homo sapiens)) was over 1.93 µM.
